Experimental findings from patent publication US9266871B2, “Trifluoromethyl-substituted fused pyrimidines and their use” (BAYER PHARMA AKTIENGESELLSCHAFT, priority 2013, dated 2016) are described below.

In this assay the target is T1, bovine PDE 6 (Bos taurus, UniProt P11541+P23439).
T1 construct: from tissue; host or cells: bovine retina, photoreceptor outer segments (ROS)
T1 sequence (P11541 2-856 limits assumed): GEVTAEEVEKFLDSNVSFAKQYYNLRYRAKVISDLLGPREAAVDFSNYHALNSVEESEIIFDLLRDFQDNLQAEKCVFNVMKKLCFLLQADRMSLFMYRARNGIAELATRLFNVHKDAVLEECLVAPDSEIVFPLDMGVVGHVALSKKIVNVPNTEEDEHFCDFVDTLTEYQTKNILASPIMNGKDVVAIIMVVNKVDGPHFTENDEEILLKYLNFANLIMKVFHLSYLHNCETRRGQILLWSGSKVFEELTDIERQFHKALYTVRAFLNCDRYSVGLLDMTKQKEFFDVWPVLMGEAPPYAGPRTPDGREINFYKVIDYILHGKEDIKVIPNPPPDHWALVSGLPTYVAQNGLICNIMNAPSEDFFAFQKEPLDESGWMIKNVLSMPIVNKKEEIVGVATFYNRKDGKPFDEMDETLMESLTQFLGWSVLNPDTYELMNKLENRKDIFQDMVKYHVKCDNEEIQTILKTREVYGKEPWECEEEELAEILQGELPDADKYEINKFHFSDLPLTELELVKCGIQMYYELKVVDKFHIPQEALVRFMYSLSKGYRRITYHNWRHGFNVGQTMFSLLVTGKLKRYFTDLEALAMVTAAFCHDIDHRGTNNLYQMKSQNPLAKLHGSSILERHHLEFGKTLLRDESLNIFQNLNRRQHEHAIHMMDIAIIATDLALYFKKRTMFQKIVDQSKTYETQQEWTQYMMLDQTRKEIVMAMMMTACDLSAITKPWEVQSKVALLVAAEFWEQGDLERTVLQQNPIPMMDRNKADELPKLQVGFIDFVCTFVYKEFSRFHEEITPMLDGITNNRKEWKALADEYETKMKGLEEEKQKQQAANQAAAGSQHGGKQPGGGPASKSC
T1 sequence (P23439 2-850 limits assumed): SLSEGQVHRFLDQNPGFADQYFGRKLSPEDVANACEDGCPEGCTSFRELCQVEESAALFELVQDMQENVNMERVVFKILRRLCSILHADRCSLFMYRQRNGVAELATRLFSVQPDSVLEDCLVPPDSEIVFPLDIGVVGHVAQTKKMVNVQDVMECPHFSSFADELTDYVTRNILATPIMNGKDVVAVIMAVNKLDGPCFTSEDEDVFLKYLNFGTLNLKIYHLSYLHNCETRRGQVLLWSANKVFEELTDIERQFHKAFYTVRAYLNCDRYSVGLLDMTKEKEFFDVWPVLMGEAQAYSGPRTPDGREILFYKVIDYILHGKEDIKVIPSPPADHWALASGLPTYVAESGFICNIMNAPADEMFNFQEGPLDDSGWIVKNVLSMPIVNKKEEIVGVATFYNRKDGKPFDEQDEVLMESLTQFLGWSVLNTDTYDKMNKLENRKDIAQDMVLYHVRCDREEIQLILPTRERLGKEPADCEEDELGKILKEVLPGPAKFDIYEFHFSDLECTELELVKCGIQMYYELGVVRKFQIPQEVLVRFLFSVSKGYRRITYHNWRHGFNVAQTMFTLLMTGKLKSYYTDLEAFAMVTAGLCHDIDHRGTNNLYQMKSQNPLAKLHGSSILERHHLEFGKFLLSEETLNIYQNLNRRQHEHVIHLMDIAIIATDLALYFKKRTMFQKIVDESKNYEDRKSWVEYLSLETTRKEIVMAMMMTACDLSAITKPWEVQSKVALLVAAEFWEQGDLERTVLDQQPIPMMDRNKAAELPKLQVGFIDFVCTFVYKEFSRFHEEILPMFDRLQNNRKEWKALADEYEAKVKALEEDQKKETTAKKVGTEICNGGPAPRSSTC
The assay is described as follows: Inhibition of bovine phosphodiesterase 6 (PDE 6), 3H-cGMP SPA. Format: biochemical. The settings on record: bovine PDE 6 inhibition. On the procedure: B-6. Inhibition of Bovine Phosphodiesterase 6 (PDE 6)
PDE 6 is purified from external photoreceptor segments of bovine retina (ROS), activated by mild trypsination and purified further by ion exchange chromatography using a Mono Q column. Fractions having PDE 6 activity are combined (PDE 6 preparation) and stored at −80° (I. Saenz de Tejada et al., International Journal of Impotence Research 2001, 13, 282-290). The in vitro effect of test substances on bovine PDE 6 is determined using the commercially available 3H-cGMP Scintillation Proximity Assay (SPA) from Perkin Elmer. The reaction ([…], 37° C.) comprises serial dilution series of the test substances in DMSO and PDE 6 preparation (typical dilution 1:100,000), [8^−3H]guanosine 3′,5′-cyclic phosphate (0.25 μCi/mL; Perkin Elmer) and unlabelled cGMP (10 μM) in assay buffer (50 mM Tris/HCl pH 7.5; 140 mM NaCl; 8.3 mM MgCl2; 1.7 mM EDTA; 0.02% BSA). IC50 values are determined by plotting the substance concentration against the percent PDE 6 inhibition determined (Wunder et al. Molecular Pharmacology 2005, 68, 1775-1781).

In turn, `C[C@]1(C(F)(F)F)C(=O)Nc2nc(-c3nn(Cc4ncccc4F)c4ncc(F)cc34)nc(NCCC(F)(F)F)c21` (single isomer, unassigned) [Example 1-2] returned a half-maximal inhibitory concentration (IC50) of 1.4 µM. For `C[C@@]1(C(F)(F)F)C(=O)Nc2nc(-c3nn(Cc4ncccc4F)c4ncc(F)cc34)nc(NCCC(F)(F)F)c21` (single isomer, unassigned) [Example 1-1] the value was 0.22 µM.
